Measurements reported in patent publication US9346759B2, “Polymorphic crystal forms of 5-(2-{[6-(2,2-difluoro-2-phenylethoxy)hexyl]amino}-1-(R)-hydroxyethyl)-8-hydroxyquinolin-2(1H)-one, heminapadisytlate as agonist of the β2 adrenergic receptor” (ALMIRALL, S.A., priority 2012, dated 2016).

Assay: Aerodynamic assessment of fine particles of the inhalation powder composition (modified Anderson Cascade Impactor, Genuair inhaler)
Type: physicochemical
Settings: dry powder blend of the polymorph with lactose carrier, no additive material, ACI 60 L/min, fine particles <5 μm, HPLC
Source text: The process for manufacturing the pharmaceutical composition comprising a polymorphic salt of compound (I) (Type α, Type β or Hydrate) and a carrier is as follows: • 1. 20% by weight of lactose used as a carrier was blended with one polymorph (Type α, Type β or Hydrate). The resulting mixture was sieved and mixed again. • 2. The remaining 80% by weight of lactose was sieved and added to the mixture of Step 1. The whole mixture was blended, sieved and blended again resulting in the final inhalation powder blend.
The test on the aerodynamic assessment of the fine particles (FPD<5 μm) of the inhalation powder composition is carried out in combination with the Genuair® inhaler. The Fine Particle Fraction of the three formulations was calculated on basis of the principles of the aerodynamic assessment of fine particles according to the Current European pharmacopoeia (Ph. Eur. Chapter 2.9.18) and USP<601> by the aid of aerodynamic impactor analyses using a modified Anderson Cascade Impactor (ACI), 60 L/min-configuration including pre-separator, stage-1, -0, and stage 1-7 (filter stage). The content of the active ingredient on each stage of the impactor is determined my means of HPLC.
The fine particle dose (FPD<5 μm) is calculated based on Ph. Eur. Chapter 2.9.18 and USP<601> by point to point interpolation per dosage. […]
To obtain the Fine Particle Dose, the cumulative percent value (y-value) at which the line of data plot crosses 5 μm mark is determined. […] FPD [μg]=yFPD·F/100% • FPD=Fine particle dose<5 μm of the active ingredient per dosage [μg]. • yFPD=y-value of cumulative percentage of mass at a particle size of 5 μm evaluated by linear point to point interpolation [%]. • F=sum of mass on stage-1-stage 7 (filter) per dosage [μg].
The Fine Particle Fraction (FPF) is the percentage of the emitted dose that the Fine Particel Dose represents and is calculated as follows: FPF [%]=(FPD [μg]/Total sum [μg])*100 • Total sum=the amount of drug substance in the respective impactor (Adapter-Filter).

| FPF (%) | FPF (%) (hemihydrate) | Compound |
| --- | --- | --- |
| 49.3 | – | O=c1ccc2c([C@@H](O)CNCCCCCCOCC(F)(F)c3ccccc3)ccc(O)c2[nH]1 [Polymorph Type β, 5-(2-{[6-(2,2-difluoro-2-phenylethoxy)hexyl]amino}-1(R)-hydroxyethyl)-8-hydroxyquinolin-2(1H)-one, heminapadisylate] |
| 42.2 | – | O=c1ccc2c([C@@H](O)CNCCCCCCOCC(F)(F)c3ccccc3)ccc(O)c2[nH]1 [Comparative Example, 5-(2-{[6-(2,2-difluoro-2-phenylethoxy)hexyl]amino}-1(R)-hydroxyethyl)-8-hydroxyquinolin-2(1H)-one, heminapadisylate, reference compound] |
| – | 49.8 | O=c1ccc2c([C@@H](O)CNCCCCCCOCC(F)(F)c3ccccc3)ccc(O)c2[nH]1 [Polymorph Hydrate, 5-(2-{[6-(2,2-difluoro-2-phenylethoxy)hexyl]amino}-1(R)-hydroxyethyl)-8-hydroxyquinolin-2(1H)-one, heminapadisylate, hemihydrate] |
